Assays:
Format in all cases: cell-based, Escherichia coli
[1] = tested on: EKO-35 strains with integrated RND tripartite efflux pumps (AcrB, AcrEF, AcrD, and MdtEF) with pGDP2:emrE or empty pGDP-2; assay: Efflux pump interplay MIC profiling (pGDP2:emrE); conditions: for Interplay effect / MIC / Fold Change from EKO-35: Pore −
[2] = tested on: EKO-35-Pore strains with integrated AcrB, AcrEF, AcrD, MdtEF with pGDP2:emrE or empty pGDP-2; assay: Efflux pump interplay MIC profiling (pGDP2:emrE), porinated; conditions: for Interplay effect / MIC / Fold Change from EKO-35: Pore +
Source text: This plasmid enables single-copy genomic integration of a selected gene through integration into the nonessential araC gene within the arabinose operon (Cox, G. et al., 2022). All E. coli genes were amplified from E. coli BW25113 genomic DNA, and mexCD was amplified from P. aeruginosa PAO1, using a high-fidelity polymerase, followed by ligation into pINT2. Successful clones were verified using PCR (Primers: pLac-Fwd/pINT-Rev, Table 4) and confirmed via Sanger sequencing at The Centre for Applied Genomics (TCAG) (The Hospital for Sick Children) and the AAC (University of Guelph). For the interplay studies, this process was repeated using the pGDP2 plasmid (Cox, G. et al., 2022).
To enable comparison between efflux production in different genetic backgrounds, each efflux pump-encoding gene was also integrated into the genome of the wild-type BW25113 strain, the single gene deletion mutant from the Keio Collection, and EKO-35. Strains of interest were propagated on LB agar at 37° C. Cell inoculum was prepared using the colony resuspension method and applied to a 96-well well plate (VWR) in technical duplicate, and the minimum inhibitory concentrations were determined according to Clinical & Laboratory Standards Institute (CLSI) protocols in MHB II (Patel J. B. et al, 2015). The plates were incubated for 18 h (Multitron Shaker, Infors HT) at 37° C. with aeration at 900 rpm. The plates were equilibrated to room temperature before the OD600 nm was measured using a BioTek Synergy H1 microplate reader. For interplay profiling, blank subtracted OD600 nm values >0.1 were considered to represent growth.
To investigate, the EKO-35-Pore strains were profiled using the same approach.

[3] = tested on: EKO-35 porinated strain expressing acrF (AcrEF); assay: Checkerboard synergy (FICI), porinated strain
Method in brief: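 Checkerboard broth microdilution in MHB II followed CLSI guidelines, with MIC defined as the lowest concentration giving no growth by OD600. FICI was calculated as CA/MICA + CB/MICB for PAβN or NMP combined with an antibiotic, with <0.5 classed as synergistic. Efflux-attributed fold resistance is the strain MIC divided by the EKO-35 MIC.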

[4] = strain EKO-35 acrEF Pore, NMP + antibiotic

With `C[n+]1c2cc(N)ccc2cc2ccc(N)cc21.[Cl-]` [acriflavine] as the compound, how does the “interplay of EmrE with tripartite efflux pumps on resistance” value ([1]; EKO-35, AcrB, AcrEF, AcrD, MdtEF combined with pEmrE) read?
The value was “multiplicative effects”.

What about the Interplay effect ([1]; acrB with pEmrE) of the same compound?
Its Interplay effect is “Multiplicative”.

What about the Interplay effect ([1]; acrD with pEmrE) of the same compound?
The Interplay effect was “Multiplicative”.

What about the Interplay effect ([1]; acrEF with pEmrE) of the same compound?
Its Interplay effect is “Multiplicative”.

What about the Interplay effect ([1]; mdtEF with pEmrE) of the same compound?
Its Interplay effect is “Multiplicative”.

What about the MIC ([1]; strain EKO-35) of the same compound?
Its MIC is 0.098 µg/mL.

What about the “Fold Change from EKO-35” value ([1]; strain EKO-35 pEmrE) of the same compound?
Its value is 8.

What about the MIC ([1]; strain EKO-35 pEmrE) of the same compound?
Its MIC is 0.781 µg/mL.

What about the “Fold Change from EKO-35” value ([1]; strain acrB pEmrE) of the same compound?
Its value is 256.

And the MIC ([1]; strain acrB pEmrE)?
Its MIC is 25 µg/mL.

And the “Fold Change from EKO-35” value ([1]; strain acrB)?
The value was 16.

And the MIC ([1]; strain acrB)?
The MIC was 1.56 µg/mL.

And the “Fold Change from EKO-35” value ([1]; strain acrD pEmrE)?
Its value is 16.

And the MIC ([1]; strain acrD pEmrE)?
The MIC was 1.56 µg/mL.

What about the “Fold Change from EKO-35” value ([1]; strain acrD) of the same compound?
The value was 1.

What about the MIC ([1]; strain acrD) of the same compound?
Its MIC is 0.098 µg/mL.

What about the “Fold Change from EKO-35” value ([1]; strain acrEF pEmrE) of the same compound?
The value was 128.

And the MIC ([1]; strain acrEF pEmrE)?
The MIC was 12.5 µg/mL.

And the “Fold Change from EKO-35” value ([1]; strain acrEF)?
The value was 8.

And the MIC ([1]; strain acrEF)?
The MIC was 0.781 µg/mL.

What about the “Fold Change from EKO-35” value ([1]; strain mdtEF pEmrE) of the same compound?
Its value is 16.

And the MIC ([1]; strain mdtEF pEmrE)?
Its MIC is 1.56 µg/mL.

And the “Fold Change from EKO-35” value ([1]; strain mdtEF)?
The value was 1.

What about the MIC ([1]; strain mdtEF) of the same compound?
The MIC was 0.098 µg/mL.

What about the “resistance conferred by AcrD alone or in combination with EmrE” value ([2]; EKO-35-Pore) of the same compound?
Its value is “did not increase resistance”.

And the “interplay of EmrE with tripartite efflux pumps on resistance” value ([2]; EKO-35-Pore, AcrB, AcrEF, AcrD, MdtEF combined with pEmrE)?
The value was “Interplay was maintained”.

And the “interplay of EmrE with AcrD on resistance” value ([2]; EKO-35-Pore, AcrD with EmrE)?
Its value is “multiplicative effect was lost”.

What about the Interplay effect ([2]; acrB with pEmrE) of the same compound?
The Interplay effect was “Multiplicative”.

And the Interplay effect ([2]; acrEF with pEmrE)?
Its Interplay effect is “Multiplicative”.

And the Interplay effect ([2]; mdtEF with pEmrE)?
The Interplay effect was “Multiplicative”.

And the MIC ([2]; strain EKO-35)?
The MIC was 0.049 µg/mL.

And the “Fold Change from EKO-35” value ([2]; strain EKO-35 pEmrE)?
The value was 16.

What about the MIC ([2]; strain EKO-35 pEmrE) of the same compound?
The MIC was 0.781 µg/mL.

What about the “Fold Change from EKO-35” value ([2]; strain acrB pEmrE) of the same compound?
Its value is 256.

And the MIC ([2]; strain acrB pEmrE)?
Its MIC is 12.5 µg/mL.

What about the “Fold Change from EKO-35” value ([2]; strain acrB) of the same compound?
The value was 16.

What about the MIC ([2]; strain acrB) of the same compound?
Its MIC is 0.781 µg/mL.

And the “Fold Change from EKO-35” value ([2]; strain acrD pEmrE)?
Its value is 16.

What about the MIC ([2]; strain acrD pEmrE) of the same compound?
Its MIC is 0.781 µg/mL.

What about the “Fold Change from EKO-35” value ([2]; strain acrD) of the same compound?
The value was 2.

And the MIC ([2]; strain acrD)?
Its MIC is 0.098 µg/mL.

And the “Fold Change from EKO-35” value ([2]; strain acrEF pEmrE)?
The value was 128.

What about the MIC ([2]; strain acrEF pEmrE) of the same compound?
Its MIC is 6.25 µg/mL.

And the “Fold Change from EKO-35” value ([2]; strain acrEF)?
The value was 16.

What about the MIC ([2]; strain acrEF) of the same compound?
The MIC was 0.781 µg/mL.

What about the “Fold Change from EKO-35” value ([2]; strain mdtEF pEmrE) of the same compound?
Its value is 32.

What about the MIC ([2]; strain mdtEF pEmrE) of the same compound?
Its MIC is 1.56 µg/mL.

What about the “Fold Change from EKO-35” value ([2]; strain mdtEF) of the same compound?
The value was 4.

And the MIC ([2]; strain mdtEF)?
Its MIC is 0.195 µg/mL.

How did the MIC ([1]; strain EKO-35) turn out when `CC[n+]1c(-c2ccccc2)c2cc(N)ccc2c2ccc(N)cc21` [ethidium bromide] was run?
The MIC was 0.122 µg/mL.

What about the “Fold Change from EKO-35” value ([1]; strain EKO-35 pEmrE) of the same compound?
The value was 4.

What about the MIC ([1]; strain EKO-35 pEmrE) of the same compound?
The MIC was 0.488 µg/mL.

And the “Fold Change from EKO-35” value ([1]; strain acrB pEmrE)?
Its value is 256.

And the MIC ([1]; strain acrB pEmrE)?
Its MIC is 31.2 µg/mL.

What about the “Fold Change from EKO-35” value ([1]; strain acrB) of the same compound?
The value was 64.

And the MIC ([1]; strain acrB)?
The MIC was 7.81 µg/mL.

And the “Fold Change from EKO-35” value ([1]; strain acrD pEmrE)?
Its value is 16.

And the MIC ([1]; strain acrD pEmrE)?
Its MIC is 1.95 µg/mL.

What about the “Fold Change from EKO-35” value ([1]; strain acrD) of the same compound?
The value was 2.

And the MIC ([1]; strain acrD)?
Its MIC is 0.244 µg/mL.

And the “Fold Change from EKO-35” value ([1]; strain acrEF pEmrE)?
Its value is 64.

And the MIC ([1]; strain acrEF pEmrE)?
Its MIC is 7.81 µg/mL.

And the “Fold Change from EKO-35” value ([1]; strain acrEF)?
Its value is 16.

What about the MIC ([1]; strain acrEF) of the same compound?
Its MIC is 1.95 µg/mL.

What about the “Fold Change from EKO-35” value ([1]; strain mdtEF pEmrE) of the same compound?
Its value is 32.

What about the MIC ([1]; strain mdtEF pEmrE) of the same compound?
The MIC was 3.91 µg/mL.

And the “Fold Change from EKO-35” value ([1]; strain mdtEF)?
The value was 8.

What about the MIC ([1]; strain mdtEF) of the same compound?
The MIC was 0.977 µg/mL.

What about the FICI ([3]; EKO-35 acrEF Pore, NMP + antibiotic) of the same compound?
The FICI was 0.500.

And the Effect [3, 4]?
Its Effect is “Synergistic (Synergy (FICI ≤0.5))”.

What about the FICI [3, 4] of the same compound?
Its FICI is 0.500.

And the “MICb Alone” value ([3]; strain EKO-35 acrEF Pore, antibiotic alone)?
Its value is 2 µg/mL.

What about the “MICb Combined” value ([3]; strain EKO-35 acrEF Pore, antibiotic in combination with NMP) of the same compound?
The value was 0.5 µg/mL.

And the MIC ([2]; strain EKO-35)?
The MIC was 0.061 µg/mL.

What about the “Fold Change from EKO-35” value ([2]; strain EKO-35 pEmrE) of the same compound?
The value was 4.

What about the “Fold Change from EKO-35” value ([2]; strain acrB pEmrE) of the same compound?
Its value is 256.

What about the MIC ([2]; strain acrB pEmrE) of the same compound?
The MIC was 15.6 µg/mL.

And the “Fold Change from EKO-35” value ([2]; strain acrB)?
Its value is 64.

What about the MIC ([2]; strain acrB) of the same compound?
The MIC was 3.91 µg/mL.

What about the “Fold Change from EKO-35” value ([2]; strain acrD pEmrE) of the same compound?
The value was 8.

What about the “Fold Change from EKO-35” value ([2]; strain acrD) of the same compound?
Its value is 1.

And the MIC ([2]; strain acrD)?
Its MIC is 0.061 µg/mL.

And the “Fold Change from EKO-35” value ([2]; strain acrEF pEmrE)?
The value was 64.

What about the MIC ([2]; strain acrEF pEmrE) of the same compound?
The MIC was 3.91 µg/mL.

And the “Fold Change from EKO-35” value ([2]; strain acrEF)?
Its value is 16.

What about the “Fold Change from EKO-35” value ([2]; strain mdtEF pEmrE) of the same compound?
Its value is 32.

And the MIC ([2]; strain mdtEF pEmrE)?
The MIC was 1.95 µg/mL.

What about the “Fold Change from EKO-35” value ([2]; strain mdtEF) of the same compound?
The value was 8.
